Patent US20030203356A1, “RNase L activator-antisense complexes” (priority 2002, published 2003)
Like-named read-outs stand apart in the source and are kept apart here. Oligonucleotides are written 5' to 3', each unit as a sugar letter and its base; * is a phosphorothioate linkage, no mark a phosphodiester; rarer units and linkages stand in square brackets, end groups in braces. Plain capitals give the bases only. {spA4} = thiophosphorylated 2',5'-linked tetraadenylate (2-5A), RNase L activator; {spA3} = thiophosphorylated 2',5'-linked triadenylate (2-5A), RNase L activator; {S9} = spacer 9 linker, triethylene glycol phosphate; {BU2} = two butanediol phosphate linkers; m = 2'-O-methyl

Test system: RSV
Assay: anti-RSV activity in infected HEp-2 cells (reduction of cytopathic effects, neutral red uptake assay)
Assay type: cell-based, Respiratory Syncytial Virus
Description: A comparison of the efficacies of RBI245 treatment and conventional ribarvirin treatment can be obtained by determining the RSV-inhibitory concentration and the cytotoxic concentration of each compound. Cultures of the human laryngeal carcinoma cell line HEp-were established and infected with an MOI=0.02. Treatment with either ribavirin or RBI245 was begun one hour post-infection. The effects of treatment on RSV infection were reported as an EC50, the concentration at which there was a 50% reduction in the observable cytopathic effects of infection. The results of the treatment of HEp-2 cells with RBI245, ribavirin, and other activator-antisense complexes are shown in FIG. 1 and summarized in Table 2. […] Therefore, the activity of RBI245 in vitro is more than 1000-fold better than ribavarin, the only approved drug for the treatment of RSV. No toxicity was found for any of the 2-5A oligonucleotide compounds up to the maximum dosage tested (3.2 μM).

[1] = HEp-2 cells infected with RSV, MOI=0.02, treatment begun one hour post-infection, read-out: EC50 in μM (50% Effective dose based on neutral red uptake assay)

(spA)3-S9-(AsAsAsAAUGGGGCAsAsA)m-3′ ({spA3}-{S9}-mA*mA*mA*mAmAmUmGmGmGmGmCmA*mA*mA; antisense; 5' 2-5A activator attached via linker) [RBI243, shortened version of 245]
EC50 [1]: 0.3 µM

NC(=O)c1ncn([C@@H]2O[C@H](CO)[C@@H](O)[C@H]2O)n1 [Ribavirin, reference compound]
EC50 (human respiratory syncytial virus, 1 h, HEp-2 cells infected with RSV, MOI=0.02, treatment begun one hour post-infection, read-out: EC50 in μM (50% Effective dose based on neutral red uptake assay)): 60 µM | EC50 (human respiratory syncytial virus, 1 h, HEp-2 cells, MOI=0.02, treatment one hour post-infection, read-out: EC50, concentration at which there was a 50% reduction in the observable cytopathic effects of infection): 60 µM

spA4-BU2-(AsAsAsAAUGGGGCAAAsUsAsA)m3′ ({spA4}-{BU2}-mA*mA*mA*mAmAmUmGmGmGmGmCmAmAmA*mU*mA*mA; antisense; 5' 2-5A activator attached via linker) [RBI034]
EC50 [1]: 0.6 µM

5′sp-A2′s5′A2′s5′A2′s5′A2′-p(CH2CH2O)3-p-5′(AsAsAsAAUGGGGCAAAsUsAsA)m03′ (antisense {spA4}-{S9}-mA*mA*mA*mAmAmUmGmGmGmGmCmAmAmA*mU*mA*mA; 5' 2-5A activator attached via triethylene glycol linker, further chemistry not given here) [RBI245]
EC50 (HEp-2 cells, MOI=0.02, treatment one hour post-infection, read-out: EC50, concentration at which there was a 50% reduction in the observable cytopathic effects of infection): 0.02 µM | anti-RSV activity in vitro relative to ribavirin (ratio of in vitro potency versus ribavirin): more than 1000 fold

spA4-BU2-(GsAsTsAGAAATAGAAAsGsCsA)m-3′ (GATAGAAATAGAAAGCA; antisense; all 2'-O-methyl, linkages s3 o10 s3 (s phosphorothioate, o phosphodiester), 5' {spA4}-{BU2}, T or U not given here; 5' 2-5A activator attached via linker) [RBI066, scrambled control, reference compound]
EC50 [1]: > 3.2 µM
